Data: patent publication US4578383A, “CL 1565 antibiotic compounds” (priority 1984, dated 1986)
Where two headings read alike, the source gives them in different places.

System: P388 Lymphatic Leukemia
Type: in vivo, Mice
Source text: The test method used is based on that described in Cancer Chemother. Reports 3:1-87 (part 3), 1972.

[1] = 3.1 mg/kg/day (CL 1565-T and CL 1565-B tables)
[2] = 6.3 mg/kg/day (CL 1565-T and CL 1565-B tables)
[3] = 12.5 mg/kg/day (CL 1565-T and CL 1565-B tables)

## CC=CC=CC=CC(O)CC(OP(=O)(O)O)C(C)(O)C=CC1CC=CC(=O)O1 (centres unmarked) [CL 1565-B]
[1]
  T/C × 100: 129
[2]
  T/C × 100: 142
[3]
  T/C × 100: 178
25.0 mg/kg/day (CL 1565-B table)
  T/C × 100 (toxicity noted): Toxic

## CC(O)(C=CC1OC(=O)C=CC1O)C(CC(O)C=CC=CC=CCO)OP(=O)(O)O (centres unmarked) [CL 1565-T]
[1]
  T/C × 100: 147
[2]
  T/C × 100: 142
[3]
  T/C × 100: 147
25.0 mg/kg/day (CL 1565-T table)
  T/C × 100: 157
